US20260000656A1, “ANTIFUNGAL AGENTS WITH ENHANCED ACTIVITY IN ACIDIC PH” (Scynexis, Inc., priority 2017, published 2026)

How the values were obtained:
[1] = Plasma, vaginal secretion and vaginal tissue exposure after oral administration in mice; type: in vivo; settings: for AUC(0-t): po
Protocol: Female CD-1 mice (n=3/time point/dose group) were given SCY-078 via oral gavage for either one, two, or eight total doses ranging from 10 to 80 mg/kg, consisting of QD (once per day) and BID (twice per day) dose regimens, with and without loading doses, as follows: • QD (Day 1): 10, 20, 40, 80 mg/kg • BID (Day 1): 10/5, 20/10, 40/20, 80/40 mg/kg • BID repeat dose (Days 1-4): 10/5, 20/10 40/20, 80/40 mg/kg on Day 1; 5, […] mg/kg BID on Days 2 to 4
Blood, vulvo-vaginal tissue and vaginal secretions were collected pre-dose, and at 1, 2, 4, 6, 8, 12, 18 and 24 hours post-dose, following the final dose administered per group. Samples were then processed, extracted via protein precipitation and analyzed for SCY-078 via LC MS/MS.

clinical = type: in vivo, human; settings: female, human, in vivo, po, 300 mg
Protocol: A Phase 2 study was conducted to evaluate the safety, efficacy, tolerability, and pharmacokinetics of five dose regimens of oral SCY-078 (administered as the citrate salt) compared to oral fluconazole in adult, female patients with moderate-to-severe acute VVC (defined as having a signs and symptoms (S&S) score of 7 or greater). A total of 186 intent-to-treat (ITT) patients were randomized into six different treatment arms as follows: five different dosing regimens of oral SCY-078 and one oral fluconazole treatment arm. The modified intent-to-treat (mITT) population was used for efficacy analysis and included 153 patients with culture-confirmed Candida spp. vaginal infection (positive microscopic examination of vaginal secretions showing yeast, vaginal pH≤4.5) at baseline. The doses of SCY-078 tested ranged from 600 mg to 1800 mg total dose administered over the duration of treatment, and the durations of treatment were 1 or 3 days:
The primary efficacy endpoint was clinical cure, which according to current FDA guidance is defined as complete resolution (score=0) of all signs and symptoms at the Day 10 Test-of-Cure visit without the need of additional antifungal therapy. Secondary endpoints included mycological eradication (negative culture) and a composite endpoint including both clinical cure and mycological eradication. Response was also evaluated based on the percent of patients achieving a noticeable improvement in their signs and symptoms, either by achieving an S&S score of 0 or 1 or an absolute change (reduction) in mean composite S&S score from baseline. An S&S score is based on a patient's reported symptoms (burning, itching, and irritation) and investigator-assessed signs (swelling, redness, and excoriations); each sign and symptom can be absent, mild, moderate, or severe, with a corresponding score from 0 to 3; the total composite scale is 0 to 18 points. Response was further evaluated by assessing the number of patients who received rescue antifungal therapy. Patients were assessed at the Day 10 Test-of-Cure visit and also at a Day 25 Follow-Up visit. The study was not designed to achieve statistically significant differences in any of the evaluated endpoints.

For `CC(C)[C@@H](C)[C@@]1(C)CC[C@]2(C)[C@H]3CC[C@@H]4[C@@]5(COC[C@]4(C)[C@@H](OC[C@](C)(N)C(C)(C)C)[C@H](n4ncnc4-c4ccncc4)C5)C3=CC[C@@]2(C)[C@@H]1C(=O)O` [SCY-078], the AUC(0-t) ([1]; female, CD-1, mouse, plasma, 10 mg/kg, oral gavage, QD 10 mg/kg (Day 1), read-out: AUC0-24 Plasma) was 8330 ng·h/mL, the AUC(0-t) ([1]; female, CD-1, mouse, plasma, 20 mg/kg, oral gavage, QD 20 mg/kg (Day 1), read-out: AUC0-24 Plasma) was 19700 ng·h/mL and the AUC(0-t) ([1]; female, CD-1, mouse, plasma, 40 mg/kg, oral gavage, QD 40 mg/kg (Day 1), read-out: AUC0-24 Plasma) was 42300 ng·h/mL. The AUC(0-t) ([1]; female, CD-1, mouse, plasma, 80 mg/kg, oral gavage, QD 80 mg/kg (Day 1), read-out: AUC0-24 Plasma) was 75500 ng·h/mL, the AUC(0-t) ([1]; female, CD-1, mouse, plasma, BID regimen, 10/5-80/40 mg/kg, read-out: AUC0-24 in plasma, range over doses) was 7470 to 101000 ng·h/mL and the AUC(0-t) ([1]; female, CD-1, mouse, plasma, BID repeat dose regimen (Days 1-4), read-out: AUC0-24 in plasma, range over doses) was 7470 to 101000 ng·h/mL. For the same compound, the AUC(0-t) ([1]; female, CD-1, mouse, plasma, QD regimen, 10-80 mg/kg, read-out: AUC0-24 in plasma, range over doses) was 8330 to 75500 ng·h/mL, the AUC(0-t) ([1]; female, CD-1, mouse, plasma, oral gavage, BID 10/5 mg/kg (Day 1), read-out: AUC0-24 Plasma) was 7470 ng·h/mL and the AUC(0-t) ([1]; female, CD-1, mouse, plasma, oral gavage, BID 20/10 mg/kg (Day 1), read-out: AUC0-24 Plasma) was 16600 ng·h/mL. For the same compound, the AUC(0-t) ([1]; female, CD-1, mouse, plasma, oral gavage, BID 40/20 mg/kg (Day 1), read-out: AUC0-24 Plasma) was 46500 ng·h/mL, the AUC(0-t) ([1]; female, CD-1, mouse, plasma, oral gavage, BID 80/40 mg/kg (Day 1), read-out: AUC0-24 Plasma) was 101000 ng·h/mL and the AUC(0-t) ([1]; female, CD-1, mouse, plasma, oral gavage, BID repeat-dose 10/5 mg/kg (Days 1-4), read-out: AUC0-24 Plasma) was 5120 ng·h/mL. The AUC(0-t) ([1]; female, CD-1, mouse, plasma, oral gavage, BID repeat-dose 20/10 mg/kg (Days 1-4), read-out: AUC0-24 Plasma) was 14600 ng·h/mL, the AUC(0-t) ([1]; female, CD-1, mouse, plasma, oral gavage, BID repeat-dose 40/20 mg/kg (Days 1-4), read-out: AUC0-24 Plasma) was 53000 ng·h/mL and the AUC(0-t) ([1]; female, CD-1, mouse, plasma, oral gavage, BID repeat-dose 80/40 mg/kg (Days 1-4), read-out: AUC0-24 Plasma) was 143000 ng·h/mL. The AUC(0-t) ([1]; female, CD-1, mouse, vaginal secretion, 10 mg/kg, oral gavage, QD 10 mg/kg (Day 1), read-out: AUC0-24 Vaginal Secretion) was 1320 ng·h/mL, the AUC(0-t) ([1]; female, CD-1, mouse, vaginal secretion, 20 mg/kg, oral gavage, QD 20 mg/kg (Day 1), read-out: AUC0-24 Vaginal Secretion) was 1870 ng·h/mL and the AUC(0-t) ([1]; female, CD-1, mouse, vaginal secretion, 40 mg/kg, oral gavage, QD 40 mg/kg (Day 1), read-out: AUC0-24 Vaginal Secretion) was 4410 ng·h/mL. The AUC(0-t) ([1]; female, CD-1, mouse, vaginal secretion, 80 mg/kg, oral gavage, QD 80 mg/kg (Day 1), read-out: AUC0-24 Vaginal Secretion) was 12300 ng·h/mL, the AUC(0-t) ([1]; female, CD-1, mouse, vaginal secretion, oral gavage, BID 10/5 mg/kg (Day 1), read-out: AUC0-24 Vaginal Secretion) was 1550 ng·h/mL and the AUC(0-t) ([1]; female, CD-1, mouse, vaginal secretion, oral gavage, BID 20/10 mg/kg (Day 1), read-out: AUC0-24 Vaginal Secretion) was 4210 ng·h/mL. For the same compound, the AUC(0-t) ([1]; female, CD-1, mouse, vaginal secretion, oral gavage, BID 40/20 mg/kg (Day 1), read-out: AUC0-24 Vaginal Secretion) was 10600 ng·h/mL, the AUC(0-t) ([1]; female, CD-1, mouse, vaginal secretion, oral gavage, BID 80/40 mg/kg (Day 1), read-out: AUC0-24 Vaginal Secretion) was 17800 ng·h/mL and the AUC(0-t) ([1]; female, CD-1, mouse, vaginal secretion, oral gavage, BID repeat-dose 10/5 mg/kg (Days 1-4), read-out: AUC0-24 Vaginal Secretion) was 4320 ng·h/mL. For the same compound, the AUC(0-t) ([1]; female, CD-1, mouse, vaginal secretion, oral gavage, BID repeat-dose 20/10 mg/kg (Days 1-4), read-out: AUC0-24 Vaginal Secretion) was 8630 ng·h/mL, the AUC(0-t) ([1]; female, CD-1, mouse, vaginal secretion, oral gavage, BID repeat-dose 40/20 mg/kg (Days 1-4), read-out: AUC0-24 Vaginal Secretion) was 38800 ng·h/mL and the AUC(0-t) ([1]; female, CD-1, mouse, vaginal secretion, oral gavage, BID repeat-dose 80/40 mg/kg (Days 1-4), read-out: AUC0-24 Vaginal Secretion) was 120000 ng·h/mL. It also gave an AUC(0-t) ([1]; female, CD-1, mouse, vaginal secretions, BID regimen, 10/5-80/40 mg/kg, read-out: AUC0-24 in vaginal secretions, range over doses) of 1550 to 17800 ng·h/mL, an AUC(0-t) ([1]; female, CD-1, mouse, vaginal secretions, BID repeat dose regimen (Days 1-4), read-out: AUC0-24 in vaginal secretions, range over doses) of 4320 to 120000 ng·h/mL and an AUC(0-t) ([1]; female, CD-1, mouse, vaginal secretions, QD regimen, 10-80 mg/kg, read-out: AUC0-24 in vaginal secretions, range over doses) of 1320 to 12300 ng·h/mL. For the same compound, the Kp ([1]; female, CD-1, mouse, vaginal tissue, oral, repeat-dosing, read-out: accumulation in vaginal tissue relative to plasma) was > 10, the “AUC0-24 Vaginal Tissue” value ([1]; oral gavage, BID 10/5 mg/kg (Day 1)) was 24.6 µg·h/g and the “AUC0-24 Vaginal Tissue” value ([1]; oral gavage, BID 20/10 mg/kg (Day 1)) was 72.9 µg·h/g. The “AUC0-24 Vaginal Tissue” value ([1]; oral gavage, BID 40/20 mg/kg (Day 1)) was 204 µg·h/g, the “AUC0-24 Vaginal Tissue” value ([1]; oral gavage, BID 80/40 mg/kg (Day 1)) was 337 µg·h/g and the “AUC0-24 Vaginal Tissue” value ([1]; oral gavage, BID repeat-dose 10/5 mg/kg (Days 1-4)) was 24.4 µg·h/g. For the same compound, the “AUC0-24 Vaginal Tissue” value ([1]; oral gavage, BID repeat-dose 20/10 mg/kg (Days 1-4)) was 71.6 µg·h/g, the “AUC0-24 Vaginal Tissue” value ([1]; oral gavage, BID repeat-dose 40/20 mg/kg (Days 1-4)) was 275 µg·h/g and the “AUC0-24 Vaginal Tissue” value ([1]; oral gavage, BID repeat-dose 80/40 mg/kg (Days 1-4)) was 1798 µg·h/g. The “AUC0-24 Vaginal Tissue” value ([1]; oral gavage, QD 10 mg/kg (Day 1)) was 26.7 µg·h/g, the “AUC0-24 Vaginal Tissue” value ([1]; oral gavage, QD 20 mg/kg (Day 1)) was 53.6 µg·h/g and the “AUC0-24 Vaginal Tissue” value ([1]; oral gavage, QD 40 mg/kg (Day 1)) was 187 µg·h/g. For the same compound, the “AUC0-24 Vaginal Tissue” value ([1]; oral gavage, QD 80 mg/kg (Day 1)) was 171 µg·h/g, the AUC(0-t) (clinical) was 3 to 8 µM·h and the Cmax (clinical) was 200 to 500 nM.
